Test results as given in PMC7909954 (eLife, 2021).
Values joined by “and” are separate entries in the source; they are usually repeats but may differ in a detail not shown here. Identical values can stand only once. Like-named read-outs stand apart in the source and are kept apart here.

Tests used:
[1] = target: T1, mDOR (Mus musculus, UniProt P32300); test: cell-based; details: for EC50: EC50 G protein activation (BRET) mDOR; for Emax: HEK-293T, read-out: Emax% G protein activation (BRET) mDOR
T1 sequence (P32300 whole entry): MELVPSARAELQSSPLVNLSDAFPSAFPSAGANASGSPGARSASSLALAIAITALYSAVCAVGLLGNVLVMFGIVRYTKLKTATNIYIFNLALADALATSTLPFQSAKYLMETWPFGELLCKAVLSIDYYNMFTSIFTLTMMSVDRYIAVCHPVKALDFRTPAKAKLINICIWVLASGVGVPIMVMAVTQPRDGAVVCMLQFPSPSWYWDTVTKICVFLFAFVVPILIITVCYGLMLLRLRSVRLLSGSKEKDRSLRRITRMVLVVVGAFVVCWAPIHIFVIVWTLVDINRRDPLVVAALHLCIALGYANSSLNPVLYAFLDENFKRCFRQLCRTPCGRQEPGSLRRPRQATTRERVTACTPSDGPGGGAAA

[2] = target: T2, rKOR (Rattus norvegicus, UniProt P34975)
T2 sequence (P34975 whole entry): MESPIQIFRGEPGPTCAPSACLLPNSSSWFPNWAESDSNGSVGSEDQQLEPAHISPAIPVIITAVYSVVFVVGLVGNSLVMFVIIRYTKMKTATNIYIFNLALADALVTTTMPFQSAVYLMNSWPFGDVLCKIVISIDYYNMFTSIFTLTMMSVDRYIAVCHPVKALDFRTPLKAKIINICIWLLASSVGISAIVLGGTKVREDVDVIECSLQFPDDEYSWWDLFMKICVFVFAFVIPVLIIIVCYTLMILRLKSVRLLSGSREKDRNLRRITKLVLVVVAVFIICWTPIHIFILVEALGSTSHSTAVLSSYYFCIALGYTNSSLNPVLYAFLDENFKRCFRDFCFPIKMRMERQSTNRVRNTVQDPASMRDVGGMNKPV

[3] = target: T1, mDOR; test: cell-based; details: for Emax: HEK-293T, read-out: Emax% arrestin recruitment (BRET) mDOR
[4] = target: T1, mDOR; test: biochemical; details: for Emax: read-out: Emax mDOR [35S]GTPγS
[5] = target: T3, DOR (Homo sapiens, UniProt P41143); test: cell-based; details: for EC50: Tango; for Emax: HTLA, read-out: Emax% arrestin recruitment hDOR
T3 sequence (P41143 whole entry): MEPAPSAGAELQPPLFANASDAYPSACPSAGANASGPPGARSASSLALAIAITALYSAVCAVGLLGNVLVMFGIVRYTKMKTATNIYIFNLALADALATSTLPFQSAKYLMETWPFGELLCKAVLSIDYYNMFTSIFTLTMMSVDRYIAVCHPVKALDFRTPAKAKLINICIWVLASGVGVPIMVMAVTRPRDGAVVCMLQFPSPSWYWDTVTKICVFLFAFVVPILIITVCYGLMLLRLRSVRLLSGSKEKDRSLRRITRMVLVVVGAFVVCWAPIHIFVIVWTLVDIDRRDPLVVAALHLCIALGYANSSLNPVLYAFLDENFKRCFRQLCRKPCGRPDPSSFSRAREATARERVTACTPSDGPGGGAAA

[6] = target: T4, mMOR (Mus musculus, UniProt P42866); test: cell-based; details: for Emax: HEK-293T, read-out: Emax% G protein activation (BRET) mMOR
T4 sequence (P42866 whole entry): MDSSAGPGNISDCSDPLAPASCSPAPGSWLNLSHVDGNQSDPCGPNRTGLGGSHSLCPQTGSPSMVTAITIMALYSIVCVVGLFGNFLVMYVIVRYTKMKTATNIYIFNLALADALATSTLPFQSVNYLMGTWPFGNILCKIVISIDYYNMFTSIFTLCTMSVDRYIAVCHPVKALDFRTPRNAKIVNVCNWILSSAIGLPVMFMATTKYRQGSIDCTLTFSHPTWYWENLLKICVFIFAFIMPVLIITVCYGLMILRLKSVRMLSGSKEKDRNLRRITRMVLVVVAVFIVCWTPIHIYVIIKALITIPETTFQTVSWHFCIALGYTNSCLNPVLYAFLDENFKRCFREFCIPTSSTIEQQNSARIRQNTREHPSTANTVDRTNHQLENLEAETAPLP

[7] = target: T5, KOR (Homo sapiens, UniProt P41145); test: cell-based; details: for EC50: EC50 arrestin recruitment (Tango) hKOR; for Emax: HTLA, read-out: Emax% arrestin recruitment (Tango) hKOR
T5 sequence (P41145 whole entry): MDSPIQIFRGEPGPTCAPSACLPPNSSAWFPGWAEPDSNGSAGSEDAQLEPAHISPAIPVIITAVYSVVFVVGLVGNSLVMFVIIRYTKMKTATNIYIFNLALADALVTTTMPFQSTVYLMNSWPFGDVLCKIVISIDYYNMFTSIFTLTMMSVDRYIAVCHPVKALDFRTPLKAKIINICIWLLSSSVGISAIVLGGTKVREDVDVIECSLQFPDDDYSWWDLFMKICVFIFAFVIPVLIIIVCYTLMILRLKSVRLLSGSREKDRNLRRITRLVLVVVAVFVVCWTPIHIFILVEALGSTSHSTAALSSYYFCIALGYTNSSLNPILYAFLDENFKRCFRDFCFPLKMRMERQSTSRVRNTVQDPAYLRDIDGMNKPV

[8] = target: T6, MOR (Homo sapiens, UniProt P35372)
T6 sequence (P35372 whole entry): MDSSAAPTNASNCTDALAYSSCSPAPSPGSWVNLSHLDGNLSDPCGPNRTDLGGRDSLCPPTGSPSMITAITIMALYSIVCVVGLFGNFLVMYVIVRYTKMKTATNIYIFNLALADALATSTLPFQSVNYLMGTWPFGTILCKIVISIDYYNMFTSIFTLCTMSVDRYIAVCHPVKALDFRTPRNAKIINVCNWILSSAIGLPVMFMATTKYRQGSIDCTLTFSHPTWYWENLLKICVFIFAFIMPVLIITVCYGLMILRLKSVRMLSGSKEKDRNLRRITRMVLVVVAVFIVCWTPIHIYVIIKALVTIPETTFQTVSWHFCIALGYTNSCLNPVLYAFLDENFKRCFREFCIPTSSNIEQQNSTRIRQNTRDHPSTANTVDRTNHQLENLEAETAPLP

[9] = target: T2, rKOR; test: cell-based; details: HEK-293T, read-out: Emax% arrestin recruitment (BRET) rKOR
[10] = target: T3, DOR; test: cell-based; details: for Emax: HEK-293T, read-out: Emax% cAMP inhibition hDOR
[11] = target: T5, KOR; details: for Bias factor (cAMP-Tango) hKOR: >1 G protein bias, <1 arrestin bias; for Bias factor (cAMP-Tango) hKOR / ΔlogRA Tango hKOR / ΔlogRA cAMP hKOR: vs U50,488h; for Log RA cAMP hKOR / LogRA Tango hKOR: transduction coefficient log(T/KA)
[12] = target: T2, rKOR; test: cell-based; details: HEK-293T, read-out: Emax% G protein activation (BRET) rKOR
[13] = target: T4, mMOR; test: biochemical; details: for EC50: EC50 mMOR [35S]GTPγS, ± SEM; for Emax: read-out: Emax mMOR [35S]GTPγS
[14] = target: T6, MOR; test: cell-based; details: for Emax: HEK-293T, read-out: Emax% cAMP inhibition hMOR
[15] = target: T5, KOR; test: cell-based; details: for Emax: HEK-293T, read-out: Emax% cAMP inhibition hKOR
[16] = target: T4, mMOR; test: cell-based; set-up: expressed in transfected cells; host or cells: HEK-293T; details: for Emax: HEK-293T, read-out: Emax% arrestin recruitment (BRET) mMOR
[17] = target: T6, MOR; test: cell-based; details: for Emax: HTLA, read-out: Emax% arrestin recruitment (Tango) hMOR
[18] = target: T7, mKOR (Mus musculus, UniProt P33534); test: biochemical; details: for EC50: EC50 mKOR [35S]GTPγS, ± SEM; for Emax: read-out: Emax mKOR [35S]GTPγS
T7 sequence (P33534 whole entry): as the sequence (P34975 whole entry) above, with E11D, A17S, P51S, V308A counted along it

[19] = target: T7, mKOR; test: biochemical
[20] = target: T4, mMOR; test: biochemical
[21] = target: T4, mMOR; format: cell-based; set-up: expressed in transfected cells; host or cells: HEK-293T
[22] = EC50 arrestin recruitment (BRET) mDOR
[23] = EC50 G protein activation (BRET) mMOR

O=C(NC1CCC2(O)C3Cc4ccc(O)c5c4C2(CCN3CC2CC2)C1O5)c1cccc(I)c1 (centres unmarked) [IBNtxA]
EC50 [1]: 0.48 nM
Emax [1]: 108 ± 3.7%
Log RA BRET-G rKOR [2]: 10.19±0.141
LogRA BRET-Arr rKOR [2]: 8.846±0.266
ΔΔlog RA (BRETG-BRETArr) rKOR [2]: -0.218±0.388
ΔlogRA BRET-G rKOR ([2]; vs U50,488h): 2.64±0.175
ΔlogRA BRET-arr rKOR ([2]; vs U50,488h): 2.858±0.346
EC50 [3, 22]: 26.6 nM
Emax [3]: 88 ± 6.8%
EC50 ([3]; pEC50 arrestin recruitment (BRET) mDOR, ± SEM): 31.6 nM
EC50 [4]: 4.08 ± 0.67 nM
Emax [4]: 95 ± 2%
EC50 ([5]; EC50 arrestin recruitment hDOR): 14.1 nM
Emax [5]: 224 ± 5%
EC50 ([5]; pEC50 arrestin recruitment hDOR, ± SEM): 15.8 nM
EC50 [6, 23]: 0.054 nM
Emax [6]: 59%
EC50 [7]: 0.013 nM
Emax [7]: 109 ± 1.8%
Bias factor (cAMP-Tango) hMOR [8]: 24
Log RA cAMP hMOR [8]: 9.99±0.081
LogRA Tango hMOR [8]: 7.572±0.25
ΔlogRA Tango hMOR [8]: -0.25±0.25
ΔlogRA cAMP hMOR [8]: 1.14±0.11
ΔΔlog RA (cAMP-Tango) hMOR [8]: 1.38±0.28
Emax [9]: 133 ± 7.3%
EC50 ([10]; EC50 cAMP inhibition hDOR): 0.43 nM
Emax [10]: 106 ± 1%
EC50 ([10]; pEC50 cAMP inhibition hDOR, ± SEM): 0.501 nM
ΔΔlog RA (cAMP-Tango) hKOR [11]: -1.002±0.052
Bias factor (cAMP-Tango) hKOR [11]: 0.1
Log RA cAMP hKOR [11]: 11.59±0.036
LogRA Tango hKOR [11]: 10.89±0.010
ΔlogRA Tango hKOR [11]: 2.53±0.015
ΔlogRA cAMP hKOR [11]: 1.53±0.050
Emax [12]: 101 ± 2.3%
EC50 [13]: 0.49 ± 0.12 nM
Emax [13]: 101 ± 3%
EC50 ([14]; EC50 cAMP inhibition hMOR): 0.07 nM
Emax [14]: 95 ± 2%
EC50 ([15]; EC50 cAMP inhibition hKOR, cell printed in pM): 2.46 pM
Emax [15]: 101 ± 1.79%
EC50 [16]: 11300 nM
Emax [16]: 75%
EC50 [17]: 5.86 nM
Emax [17]: 29 ± 0.02%
EC50 [18]: 0.22 ± 0.02 nM
Emax [18]: 102 ± 4%

O=C(NC1C=CC2C3Cc4ccc(O)c5c4C2(CCN3CC2CC2)C1O5)c1cccc(I)c1 (centres unmarked) [MP1104]
Ki [19]: 0.0064 nM
EC50 [1]: 1.4 nM
Emax [1]: 91 ± 1.7%
Log RA BRET-G rKOR [2]: 10.07±0.047
LogRA BRET-Arr rKOR [2]: 8.84±0.033
ΔΔlog RA (BRETG-BRETArr) rKOR [2]: -0.64±0.079
Bias factor (BRETG-BRETArr) rKOR ([2]; vs U50,488h): 0.23
ΔlogRA BRET-G rKOR ([2]; vs U50,488h): 1.067±0.064
ΔlogRA BRET-arr rKOR ([2]; vs U50,488h): 1.702±0.047
EC50 [3, 22]: 26 nM
Emax [3]: 40 ± 1.7%
Emax [4]: 88%
EC50 ([5]; EC50 arrestin recruitment hDOR): 3.73 nM
Emax [5]: 189 ± 5.5%
EC50 [6, 23]: 0.66 nM
Emax [6]: 62 ± 2%
Ki [20]: 0.021 nM
EC50 [7]: 0.0394 nM
Emax [7]: 117 ± 2%
Bias factor (cAMP-Tango) hMOR [8]: 0.58
Log RA cAMP hMOR [8]: 10.12±0.009
LogRA Tango hMOR [8]: 9.18±0.013
ΔlogRA Tango hMOR [8]: 1.26±0.019
ΔlogRA cAMP hMOR [8]: 1.018±0.012
ΔΔlog RA (cAMP-Tango) hMOR [8]: -0.24±0.022
Emax [9]: 89 ± 2.6%
EC50 ([10]; EC50 cAMP inhibition hDOR): 0.4 nM
Emax [10]: 99 ± 1.1%
ΔΔlog RA (cAMP-Tango) hKOR [11]: -0.81±0.055
Bias factor (cAMP-Tango) hKOR [11]: 0.15
Log RA cAMP hKOR [11]: 11.44±0.034
LogRA Tango hKOR [11]: 10.45±0.019
ΔlogRA Tango hKOR [11]: 2.16±0.027
ΔlogRA cAMP hKOR [11]: 1.35±0.048
Bias factor (BRETG-BRETArr) mMOR [21]: 0.11
Log RA BRET-G mMOR [21]: 8.917±0.12
LogRA BRET-Arr mMOR [21]: 9.196±0.06
ΔlogRA BRET-G mMOR [21]: 0.357±0.173
ΔlogRA BRET-arr mMOR [21]: 1.323±0.09
ΔΔlog RA (BRETG-BRETArr) mMOR [21]: -0.966±0.195
Emax [12]: 93 ± 1%
EC50 [13]: 0.21 ± 0.03 nM
Emax [13]: 103 ± 2%
EC50 ([14]; EC50 cAMP inhibition hMOR): 0.074 nM
Emax [14]: 94 ± 1%
EC50 ([15]; EC50 cAMP inhibition hKOR): 3.27 pM
EC50 [16]: 0.285 nM
Emax [16]: 53 ± 1.6%
EC50 [17]: 0.573 nM
Emax [17]: 90 ± 2.28%
EC50 [18]: 0.027 ± 0.002 nM
Emax [18]: 104 ± 2%

O=C(N[C@@H]1CC[C@@]2(O)C3Cc4ccc(O)cc4[C@@]2(CCN3CC2CC2)C1)c1cccc(I)c1 [MP1601, N-((4bR,6R,8aS)−11-(Cyclopropylmethyl)−3,8a-dihydroxy-6,7,8,8a,9,10-hexahydro-5H-9,4b-(epiminoethano)phenanthren-6-yl)−3-iodobenzamide]
Ki [19]: 2.13 ± 0.3 nM
EC50 [1]: 6.27 nM
Emax [1]: 105 ± 6.7%
Log RA BRET-G rKOR [2]: 7.917±0.018
LogRA BRET-Arr rKOR [2]: 7.113±0.052
ΔΔlog RA (BRETG-BRETArr) rKOR [2]: -0.006±0.057
ΔlogRA BRET-G rKOR ([2]; vs U50,488h): 0.324±0.052
ΔlogRA BRET-arr rKOR ([2]; vs U50,488h): 0.33±0.052
EC50 [3, 22]: 9 nM
Emax [3]: 16 ± 1.4%
Emax [4]: 67 ± 3.9%
EC50 ([5]; EC50 arrestin recruitment hDOR): 86.7 nM
Emax [5]: 203 ± 5.4%
EC50 [6, 23]: 2.2 nM
Emax [6]: 49 ± 3%
EC50 ([6]; pEC50 G protein activation (BRET) mMOR): 2.51 nM
Ki [20]: 0.2 ± 0.01 nM
EC50 [7]: 3.23 nM
Emax [7]: 107 ± 3%
Bias factor (cAMP-Tango) hMOR [8]: 4
Log RA cAMP hMOR [8]: 9.84±0.002
LogRA Tango hMOR [8]: 7.65±0.035
ΔlogRA Tango hMOR [8]: 0.87±0.036
ΔlogRA cAMP hMOR [8]: 1.44±0.002
ΔΔlog RA (cAMP-Tango) hMOR [8]: 0.57±0.036
Emax [9]: 37 ± 3%
EC50 ([10]; EC50 cAMP inhibition hDOR): 2.76 nM
Emax [10]: 106 ± 2.3%
ΔΔlog RA (cAMP-Tango) hKOR [11]: -0.282±0.023
Bias factor (cAMP-Tango) hKOR [11]: 0.5 and 0.52
Log RA cAMP hKOR [11]: 9.85±0.014
LogRA Tango hKOR [11]: 8.51±0.009
ΔlogRA Tango hKOR [11]: 0.097±0.012
ΔlogRA cAMP hKOR [11]: -0.19±0.020
Emax [12]: 75 ± 3%
EC50 [13]: 0.5 ± 0.2 nM
Emax [13]: 45 ± 4.6%
EC50 ([14]; EC50 cAMP inhibition hMOR): 0.1 nM
Emax [14]: 69 ± 1%
EC50 ([14]; pEC50 cAMP inhibition hMOR): 0.102 nM
Emax [15]: 109 ± 1%
EC50 ([15]; pEC50 cAMP inhibition hKOR, ± SEM): 174 pM
EC50 [17]: 4.02 nM
Emax [17]: 27 ± 2%
EC50 [18]: 3 ± 0.7 nM
Emax [18]: 72 ± 4.5%
